ChEMBL document CHEMBL3217491, “Design, synthesis and biological evaluation of imidazopyridine/pyrimidine-chalcone derivatives as potential anticancer agents” (2010)
Calls of active or inactive are those of the source. No cut-off for these calls is given here.

Key:
PC-3 = experiment: Growth inhibition of human PC3 cells after 48 hrs by SRB assay; format: functional; settings: PC-3, 48 h
DU-145 = experiment: Growth inhibition of human DU145 cells after 48 hrs by SRB assay; format: functional; settings: DU-145, 48 h
MCF7 [1] = experiment: Growth inhibition of human MCF7 cells after 48 hrs by SRB assay; format: functional; settings: MCF7, 48 h
MDA-MB-231 = experiment: Growth inhibition of human MDA-MB-231 cells after 48 hrs by SRB assay; format: functional; settings: MDA-MB-231, 48 h
[2] = Growth inhibition of human BT549 cells after 48 hrs by SRB assay; format: functional; settings: BT-549, 48 h
T47D = experiment: Growth inhibition of human T47D cells after 48 hrs by SRB assay; format: functional
MDA-MB-468 = experiment: Growth inhibition of human MDA-MB-468 cells after 48 hrs by SRB assay; format: functional; settings: MDA-MB-468, 48 h
[3] = Growth inhibition of human LOXIMVI cells after 48 hrs by SRB assay; format: functional; settings: LOX IMVI
Malme-3M = experiment: Growth inhibition of human MALME-3M cells after 48 hrs by SRB assay; format: functional
M14 = experiment: Growth inhibition of human M14 cells after 48 hrs by SRB assay; format: functional; settings: M14, 48 h
MDA-MB-435 = experiment: Growth inhibition of human MDA-MB-435 cells after 48 hrs by SRB assay; format: functional; settings: MDA-MB-435, 48 h
SK-MEL-2 = experiment: Growth inhibition of human SK-MEL-2 cells after 48 hrs by SRB assay; format: functional; settings: SK-MEL-2, 48 h
SK-MEL-5 = experiment: Growth inhibition of human SK-MEL-5 cells after 48 hrs by SRB assay; format: functional; settings: SK-MEL-5, 48 h
[4] = Growth inhibition of human UACC62 cells after 48 hrs by SRB assay; format: functional; settings: UACC-62, 48 h
[5] = Growth inhibition of human UACC257 cells after 48 hrs by SRB assay; format: functional; settings: UACC-257, 48 h
MCF7 [6] = experiment: Growth inhibition of human MCF7 cells assessed as cell viability at 4 uM after 24 hrs by MTT assay; format: functional, cell-based
MCF7 [7] = experiment: Cell cycle arrest in human MCF7 cells assessed as accumulation at G0/G1 phase at 4 uM after 24 hrs by propidium iodide staining-based flow cytometry (reference value: 64.04%); format: functional
MCF7 [8] = experiment: Cell cycle arrest in human MCF7 cells assessed as accumulation at S phase at 4 uM after 24 hrs by propidium iodide staining-based flow cytometry (reference value: 20.17%); format: functional
MCF7 [9] = experiment: Cell cycle arrest in human MCF7 cells assessed as accumulation at G2/M phase at 4 uM after 24 hrs by propidium iodide staining-based flow cytometry (reference value: 15.79%); format: functional
CCRF-CEM = experiment: Growth inhibition of human CCRF-CEM cells after 48 hrs by SRB assay; format: functional
HL-60(TB) = experiment: Growth inhibition of human HL-60(TB) cells after 48 hrs by SRB assay; format: functional; settings: HL-60, 48 h
K562 = experiment: Growth inhibition of human K562 cells after 48 hrs by SRB assay; format: functional; settings: K562, 48 h
[10] = Growth inhibition of human MOLT4 cells after 48 hrs by SRB assay; format: functional; settings: MOLT-4, 48 h
SR = experiment: Growth inhibition of human SR cells after 48 hrs by SRB assay; format: functional
RPMI-8226 = experiment: Growth inhibition of human RPMI8226 cells after 48 hrs by SRB assay; format: functional; settings: RPMI-8226, 48 h
A549 = experiment: Growth inhibition of human A549 cells after 48 hrs by SRB assay; format: functional; settings: A549, 48 h
[11] = Growth inhibition of human EKVX cells after 48 hrs by SRB assay; format: functional
HOP-62 = experiment: Growth inhibition of human HOP62 cells after 48 hrs by SRB assay; format: functional; settings: HOP-62, 48 h
[12] = Growth inhibition of human HOP92 cells after 48 hrs by SRB assay; format: functional; settings: HOP-92, 48 h
NCI-H226 = experiment: Growth inhibition of human NCI-H226 cells after 48 hrs by SRB assay; format: functional; settings: NCI-H226, 48 h
NCI-H23 = experiment: Growth inhibition of human NCI-H23 cells after 48 hrs by SRB assay; format: functional; settings: NCI-H23, 48 h
NCI-H322M = experiment: Growth inhibition of human NCI-H322M cells after 48 hrs by SRB assay; format: functional
NCI-H460 = experiment: Growth inhibition of human NCI-H460 cells after 48 hrs by SRB assay; format: functional; settings: NCI-H460, 48 h
NCI-H522 = experiment: Growth inhibition of human NCI-H522 cells after 48 hrs by SRB assay; format: functional; settings: NCI-H522, 48 h
COLO 205 = experiment: Growth inhibition of human COLO205 cells after 48 hrs by SRB assay; format: functional; settings: COLO 205, 48 h
[13] = Growth inhibition of human HCC2998 cells after 48 hrs by SRB assay; format: functional; settings: HCC 2998, 48 h
HCT-116 = experiment: Growth inhibition of human HCT116 cells after 48 hrs by SRB assay; format: functional; settings: HCT-116, 48 h
[14] = Growth inhibition of human HCT15 cells after 48 hrs by SRB assay; format: functional; settings: HCT-15, 48 h
HT-29 = experiment: Growth inhibition of human HT-29 cells after 48 hrs by SRB assay; format: functional; settings: HT-29, 48 h
KM12 = experiment: Growth inhibition of human KM12 cells after 48 hrs by SRB assay; format: functional; settings: KM12, 48 h
SF-268 = experiment: Growth inhibition of human SF268 cells after 48 hrs by SRB assay; format: functional; settings: SF-268, 48 h
[15] = Growth inhibition of human SF295 cells after 48 hrs by SRB assay; format: functional; settings: SF-295, 48 h
[16] = Growth inhibition of human SF539 cells after 48 hrs by SRB assay; format: functional; settings: SF-539, 48 h
SNB-19 = experiment: Growth inhibition of human SNB19 cells after 48 hrs by SRB assay; format: functional; settings: SNB-19, 48 h
SNB-75 = experiment: Growth inhibition of human SNB75 cells after 48 hrs by SRB assay; format: functional; settings: SNB-75, 48 h
U-251 = experiment: Growth inhibition of human U251 cells after 48 hrs by SRB assay; format: functional; settings: U-251, 48 h
IGROV-1 = experiment: Growth inhibition of human IGROV1 cells after 48 hrs by SRB assay; format: functional; settings: IGROV-1, 48 h
[17] = Growth inhibition of human OVCAR3 cells after 48 hrs by SRB assay; format: functional; settings: OVCAR-3, 48 h
[18] = Growth inhibition of human OVCAR4 cells after 48 hrs by SRB assay; format: functional; settings: OVCAR-4, 48 h
[19] = Growth inhibition of human OVCAR5 cells after 48 hrs by SRB assay; format: functional; settings: OVCAR-5, 48 h
[20] = Growth inhibition of human OVCAR8 cells after 48 hrs by SRB assay; format: functional; settings: OVCAR-8, 48 h
[21] = Growth inhibition of human NCI-ADR-RES cells after 48 hrs by SRB assay; format: functional
SK-OV-3 = experiment: Growth inhibition of human SKOV3 cells after 48 hrs by SRB assay; format: functional; settings: SK-OV-3, 48 h
786-0 = experiment: Growth inhibition of human 786-0 cells after 48 hrs by SRB assay; format: functional; settings: 786-0, 48 h
A498 = experiment: Growth inhibition of human A498 cells after 48 hrs by SRB assay; format: functional; settings: A498, 48 h
ACHN = experiment: Growth inhibition of human ACHN cells after 48 hrs by SRB assay; format: functional
CAKI-1 = experiment: Growth inhibition of human Caki1 cells after 48 hrs by SRB assay; format: functional; settings: CAKI-1, 48 h
SN12C = experiment: Growth inhibition of human SN12C cells after 48 hrs by SRB assay; format: functional
TK-10 = experiment: Growth inhibition of human TK10 cells after 48 hrs by SRB assay; format: functional; settings: TK-10, 48 h
[22] = Growth inhibition of human UO31 cells after 48 hrs by SRB assay; format: functional; settings: UO-31, 48 h

COc1cc(C(=O)/C=C/c2c(-c3cccs3)nc3ccccn23)cc(OC)c1OC
GI50 (PC-3): 2630 nM
GI50 (DU-145): 1900 nM
GI50 (MCF7 [1]): 1120 nM
GI50 (MDA-MB-231): 3080 nM
GI50 [2]: 1860 nM
GI50 (T47D): 1720 nM
GI50 (MDA-MB-468): 1720 nM
GI50 [3]: 1870 nM
GI50 (Malme-3M): 3650 nM
GI50 (M14): 2080 nM
GI50 (MDA-MB-435): 2490 nM
GI50 (SK-MEL-2): 2270 nM
GI50 (SK-MEL-5): 1330 nM
GI50 [4]: 1610 nM
GI50 [5]: 1880 nM
inhibition (MCF7 [6]): Active
Activity (MCF7 [7]): 92.41%
Activity (MCF7 [8]): 6.48%
Activity (MCF7 [9]): 1.11%
GI50 (CCRF-CEM): 1660 nM
GI50 (HL-60(TB)): 2010 nM
GI50 (K562): 1510 nM
GI50 [10]: 1770 nM
GI50 (SR): 1230 nM
GI50 (RPMI-8226): 1340 nM
GI50 (A549): 2040 nM
GI50 [11]: 3120 nM
GI50 (HOP-62): 2880 nM
GI50 [12]: 280 nM
GI50 (NCI-H226): 2040 nM
GI50 (NCI-H23): 2200 nM
GI50 (NCI-H322M): 3020 nM
GI50 (NCI-H460): 1420 nM
GI50 (NCI-H522): 1100 nM
GI50 (COLO 205): 1770 nM
GI50 [13]: 1960 nM
GI50 (HCT-116): 1630 nM
GI50 [14]: 1600 nM
GI50 (HT-29): 2090 nM
GI50 (KM12): 1320 nM
GI50 (SF-268): 2370 nM
GI50 [15]: 2240 nM
GI50 [16]: 1870 nM
GI50 (SNB-19): 2100 nM
GI50 (SNB-75): 2680 nM
GI50 (U-251): 1660 nM
GI50 (IGROV-1): 1890 nM
GI50 [17]: 2440 nM
GI50 [18]: 3130 nM
GI50 [19]: 2640 nM
GI50 [20]: 1680 nM
GI50 [21]: 1890 nM
GI50 (SK-OV-3): 3010 nM
GI50 (786-0): 2310 nM
GI50 (A498): 980 nM
GI50 (ACHN): 2090 nM
GI50 (CAKI-1): 2310 nM
GI50 (SN12C): 2440 nM
GI50 (TK-10): 3780 nM
GI50 [22]: 1070 nM
